Paper PMC4055595, “Pharmacokinetic Compatibility of Ginsenosides and Schisandra Lignans in Shengmai-san: From the Perspective of P-Glycoprotein” (PLoS ONE, 2014)

What was measured:
Caco-2 cell monolayer = experiment: Transport of digoxin and ginsenosides across Caco-2 cell monolayer (efflux ratio); type: in vitro ADME, human; conditions: for Effect of verapamil on efflux ratio: Caco-2 cells, 10 µM verapamil; for Effect of SLE on BL-AP transport / efflux ratio: Caco-2 monolayer, SLE 2.0 and 10.0 µg/mL
Outline: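 Caco-2 monolayers (18-21 days, TEER >600 Ω·cm²) preincubated 1.5 h at 37 °C in HBSS pH 7.4 with SLE (2.0 or 10.0 µg/mL) or 1% ethanol on both sides. GE (100 µg/mL) then added apical or basolateral for 2 h; ginsenosides in receiver by LC-MS. ER = Papp B→A / Papp A→B; verapamil 10 µM positive control.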

P-gp = test system: P-gp; set-up: method as in PMID 16557452; conditions: Caco-2 cell monolayer; cited from earlier work

Row | Effect of verapamil on efflux ratio (Caco-2 cell monolayer) | Effect of SLE on BL-AP transport / efflux ratio (Caco-2 cell monolayer) | SMILES | Transport by P-gp (P-gp)
1 | decreased significantly | concentration dependently decrease | CC(C)=CCC[C@](C)(O[C@@H]1O[C@H](CO)[C@@H](O)[C@H](O)[C@H]1O)[C@H]1CC[C@]2(C)[C@@H]1[C@H](O)C[C@@H]1[C@@]3(C)CC[C@H](O[C@@H]4O[C@H](CO)[C@@H](O)[C@H](O)[C@H]4O[C@@H]4O[C@H](CO)[C@@H](O)[C@H](O)[C@H]4O)C(C)(C)[C@@H]3CC[C@]12C [Rd, ginsenoside Rd] | –
2 | decreased significantly | concentration dependently decrease | CC(C)=CCC[C@](C)(O[C@@H]1O[C@H](CO[C@@H]2O[C@H](CO)[C@@H](O)[C@H](O)[C@H]2O)[C@@H](O)[C@H](O)[C@H]1O)[C@H]1CC[C@]2(C)[C@@H]1[C@H](O)C[C@@H]1[C@@]3(C)CC[C@H](O[C@@H]4O[C@H](CO)[C@@H](O)[C@H](O)[C@H]4O[C@@H]4O[C@H](CO)[C@@H](O)[C@H](O)[C@H]4O)C(C)(C)[C@@H]3CC[C@]12C [Rb1, ginsenoside Rb1] | not be transported by P-gp
